This assay has as its target T1, human HSL (Homo sapiens, UniProt Q05469).
T1 construct: overlapping PCR to generate a full length human HSL ORF with a 3′-His6 tag; His6 (C); made in house; host or cells: High 5 insect cells (baculovirus, pFast-BAC)
T1 sequence (Q05469 1-1076): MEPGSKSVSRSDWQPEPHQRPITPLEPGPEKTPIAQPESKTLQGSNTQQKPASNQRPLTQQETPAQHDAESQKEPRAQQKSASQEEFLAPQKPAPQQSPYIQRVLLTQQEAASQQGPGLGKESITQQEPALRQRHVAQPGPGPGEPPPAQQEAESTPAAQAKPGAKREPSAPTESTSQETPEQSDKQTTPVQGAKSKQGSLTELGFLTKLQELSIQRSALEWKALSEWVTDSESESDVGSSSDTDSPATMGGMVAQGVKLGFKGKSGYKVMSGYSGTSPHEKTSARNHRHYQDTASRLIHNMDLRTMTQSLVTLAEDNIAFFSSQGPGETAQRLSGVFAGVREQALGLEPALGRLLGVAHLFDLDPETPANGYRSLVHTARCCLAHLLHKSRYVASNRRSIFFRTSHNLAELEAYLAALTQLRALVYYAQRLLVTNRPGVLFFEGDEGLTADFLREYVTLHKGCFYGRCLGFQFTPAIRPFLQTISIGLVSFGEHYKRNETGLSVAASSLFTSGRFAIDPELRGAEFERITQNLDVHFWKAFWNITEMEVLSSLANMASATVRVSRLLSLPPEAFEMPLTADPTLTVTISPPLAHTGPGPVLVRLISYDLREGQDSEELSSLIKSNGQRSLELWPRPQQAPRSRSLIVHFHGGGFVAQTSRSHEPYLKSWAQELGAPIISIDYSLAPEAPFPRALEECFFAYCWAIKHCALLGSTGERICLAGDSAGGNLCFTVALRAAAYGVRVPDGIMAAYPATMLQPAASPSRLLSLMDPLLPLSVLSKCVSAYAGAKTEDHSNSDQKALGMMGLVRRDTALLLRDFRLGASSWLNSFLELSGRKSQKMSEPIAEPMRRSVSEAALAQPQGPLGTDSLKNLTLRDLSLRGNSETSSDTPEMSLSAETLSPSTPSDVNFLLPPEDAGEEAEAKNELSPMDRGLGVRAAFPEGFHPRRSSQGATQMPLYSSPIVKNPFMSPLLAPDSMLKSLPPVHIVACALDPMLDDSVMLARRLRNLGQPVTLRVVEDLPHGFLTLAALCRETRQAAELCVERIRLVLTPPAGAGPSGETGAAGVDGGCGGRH
As to the kind of experiment: Human Hormone-Sensitive Lipase (HSL) Enzyme Inhibition Assay. The class given is biochemical. Conditions: colorimetric assay, 2,3-dimercapto-1-propanol tributyrate (DMPT) substrate, 37° C. for 20 minutes, absorbance at 405 nm; read-out: HSL hum IC50. A digest of the protocol:
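Colorimetric thioester hydrolysis: compounds in DMSO series mixed with DMPT (1.5 mM) in MOPS pH 7.2 with BSA, then baculovirus-expressed His6-tagged full-length human HSL added, 37° C, 20 min. DTNB plus detergents added, 15 min room temperature, absorbance at 405 nm.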
Broadly, the IC50 is the point on the concentration scale where inhibition reaches its midpoint. Take `COc1ncccc1S(=O)(=O)N1CCC2(CCN(c3ccc(OC(F)(F)F)cc3)C2=O)CC1` [Example 194, 8-(2-Methoxy-pyridine-3-sulfonyl)-2-(4-trifluoromethoxy-phenyl)-2,8-diaza-spiro[4.5]decan-1-one]: the IC50 was 20 nM.

Take `O=C1N(c2ccc(OC(F)(F)F)cc2)CCC12CCN(S(=O)(=O)c1cccnc1OCc1ccccc1)CC2` [Example 195, 8-(2-Benzyloxy-pyridine-3-sulfonyl)-2-(4-trifluoromethoxy-phenyl)-2,8-diaza-spiro[4.5]decan-1-one]: the IC50 turned out to be 50 nM.

Turning to `O=C1N(c2ccc(OC(F)(F)F)cc2)CCC12CCN(S(=O)(=O)c1cccnc1O)CC2` [Example 196, 8-(2-Hydroxy-pyridine-3-sulfonyl)-2-(4-trifluoromethoxy-phenyl)-2,8-diaza-spiro[4.5]decan-1-one], the IC50 is 230 nM.

Take `Nc1ncccc1S(=O)(=O)N1CCC2(CCN(c3ccc(OC(F)(F)F)cc3)C2=O)CC1` [Example 197, 8-(2-Amino-pyridine-3-sulfonyl)-2-(4-trifluoromethoxy-phenyl)-2,8-diaza-spiro[4.5]decan-1-one]: the IC50 stood at 80 nM.

`O=C1N(c2ccc(OC(F)(F)F)cc2)CCC12CCN(S(=O)(=O)c1ccc(Cl)nc1)CC2` [Example 198, 8-(6-Chloro-pyridine-3-sulfonyl)-2-(4-trifluoromethoxy-phenyl)-2,8-diaza-spiro[4.5]decan-1-one]: the half-maximal inhibitory concentration (IC50) was determined as 150 nM.

On to `O=C1N(c2ccc(OC(F)(F)F)cc2)CCC12CCN(S(=O)(=O)c1cnccc1Cl)CC2` [Example 199, 8-(4-Chloro-pyridine-3-sulfonyl)-2-(4-trifluoromethoxy-phenyl)-2,8-diaza-spiro[4.5]decan-1-one], for which the IC50 is 140 nM.

For the molecule `COc1ccncc1S(=O)(=O)N1CCC2(CCN(c3ccc(OC(F)(F)F)cc3)C2=O)CC1` [Example 200, 8-(4-M ethoxy-pyridine-3-sulfonyl)-2-(4-trifluoromethoxy-phenyl)-2,8-diaza-spiro[4.5]decan-1-one], the IC50 is 170 nM.

As to `O=C1N(c2ccc(OC(F)(F)F)cc2)CCC12CCN(S(=O)(=O)c1ccccn1)CC2` [Example 201, 8-(Pyridine-2-sulfonyl)-2-(4-trifluoromethoxy-phenyl)-2,8-diaza-spiro[4.5]decan-1-one], the IC50 turned out to be 50 nM.

In the case of `O=C1N(c2ccc(OC(F)(F)F)cc2)CCC12CCN(S(=O)(=O)c1ncccn1)CC2` [Example 202, 8-(Pyrimidine-2-sulfonyl)-2-(4-trifluoromethoxy-phenyl)-2,8-diaza-spiro[4.5]decan-1-one], the IC50 was found to be 160 nM.

Consider `O=C1N(c2ccc(OC(F)(F)F)cc2)CCC12CCN(S(=O)(=O)c1ccncc1)CC2` [Example 203, 8-(Pyridine-4-sulfonyl)-2-(4-trifluoromethoxy-phenyl)-2,8-diaza-spiro[4.5]decan-1-one], for which the 50% inhibitory concentration (IC50) amounted to 250 nM.

As for `Cc1ccc(S(=O)(=O)N2CCC3(CCN(c4ccc(OC(F)(F)F)cc4)C3=O)CC2)nn1` [Example 204, 8-(6-Methyl-pyridazine-3-sulfonyl)-2-(4-trifluoromethoxy-phenyl)-2,8-diaza-spiro[4.5]decan-1-one], the IC50 is 140 nM.

With `O=C1N(c2ccc(OCC(F)(F)F)cc2)CCC12CCN(S(=O)(=O)c1cccnc1)CC2` [Example 205, 8-(Pyridine-3-sulfonyl)-2-[4-(2,2,2-trifluoro-ethoxy)-phenyl]-2,8-diaza-spiro[4.5]decan-1-one], the IC50 came to 60 nM.

Consider `O=C1N(c2ccc(OCC(F)(F)F)cc2)CCC12CCN(S(=O)(=O)c1cccnc1Cl)CC2` [Example 206, 8-(2-Chloro-pyridine-3-sulfonyl)-2-[4-(2,2,2-trifluoro-ethoxy)-phenyl]-2,8-diaza-spiro[4.5]decan-1-one], for which the half-inhibitory concentration (IC50) was 30 nM.

Regarding `CNc1ncccc1S(=O)(=O)N1CCC2(CCN(c3ccc(OCC(F)(F)F)cc3)C2=O)CC1` [Example 207, 8-(2-Methylamino-pyridine-3-sulfonyl)-2-[4-(2,2,2-trifluoro-ethoxy)-phenyl]-2,8-diaza-spiro[4.5]decan-1-one], the concentration for half-maximal inhibition (IC50) was determined as 60 nM.

In the case of `O=C1N(c2ccc(OC(F)(F)F)cc2)CCC12CCN(S(=O)(=O)CC(O)C1CC1)CC2` (stereo not shown) [Example 208, 8-(2-Cyclopropyl-2-hydroxy-ethanesulfonyl)-2-(4-trifluoromethoxy-phenyl)-2,8-diaza-spiro[4.5]decan-1-one], the half-maximal inhibitory concentration (IC50) was 160 nM.

With `COC(CS(=O)(=O)N1CCC2(CCN(c3ccc(OC(F)(F)F)cc3)C2=O)CC1)C1CC1` (stereo not shown) [Example 209, 8-(2-Cyclopropyl-2-methoxy-ethanesulfonyl)-2-(4-trifluoromethoxy-phenyl)-2,8-diaza-spiro[4.5]decan-1-one], the IC50 came out at 50 nM.

Turning to `O=C1N(c2ccc(OC(F)(F)F)cc2)CCC12CCN(S(=O)(=O)CC1(O)CCCC1)CC2` [Example 210, 8-(1-Hydroxy-cyclopentylmethanesulfonyl)-2-(4-trifluoromethoxy-phenyl)-2,8-diaza-spiro[4.5]decan-1-one], the IC50 is 60 nM.

With `COC1(CS(=O)(=O)N2CCC3(CCN(c4ccc(OC(F)(F)F)cc4)C3=O)CC2)CCCC1` [Example 211, 8-(1-Methoxy-cyclopentylmethanesulfonyl)-2-(4-trifluoromethoxy-phenyl)-2,8-diaza-spiro[4.5]decan-1-one], the half-inhibitory concentration (IC50) amounted to 130 nM.

On to `CC(C)(O)CS(=O)(=O)N1CCC2(CCN(c3ccc(OC(F)(F)F)cc3)C2=O)CC1` [Example 212, 8-(2-Hydroxy-2-methyl-propane-1-sulfonyl)-2-(4-trifluoromethoxy-phenyl)-2,8-diaza-spiro[4.5]decan-1-one], for which the 50% inhibitory concentration (IC50) was determined as 200 nM.

Consider `O=C1N(c2ccc(OC(F)(F)F)cc2)CCC12CCN(S(=O)(=O)/C=C1/CCCO1)CC2` [Example 213, 8-[Dihydro-furan-(2Z)-ylidenemethanesulfonyl]-2-(4-trifluoromethoxy-phenyl)-2,8-diaza-spiro[4.5]decan-1-one], for which the half-inhibitory concentration (IC50) was 150 nM.

Regarding `O=C1N(c2ccc(OC(F)(F)F)cc2)CCC12CCN(S(=O)(=O)CC1CCCO1)CC2` (stereo not shown) [Example 214, 8-(Tetrahydro-furan-2-ylmethanesulfonyl)-2-(4-trifluoromethoxy-phenyl)-2,8-diaza-spiro[4.5]decan-1-one], the IC50 worked out at 100 nM.

Take `CCC(C)(O)CC(=O)N1CCC2(CC1)CCN(c1ccc(OC(F)(F)F)cc1)C2=O` (stereo not shown) [Example 215, 8-(3-Hydroxy-3-methyl-pentanoyl)-2-(4-trifluoromethoxy-phenyl)-2,8-diaza-spiro[4.5]decan-1-one]: the IC50 worked out at 470 nM.

`O=C(CC1CCC1)N1CCC2(CC1)CCN(c1ccc(OC(F)(F)F)cc1)C2=O` [Example 216, 8-(2-Cyclobutyl-acetyl)-2-(4-trifluoromethoxy-phenyl)-2,8-diaza-spiro[4.5]decan-1-one]: the IC50 is 250 nM.

Consider `CC(C)OCC(=O)N1CCC2(CC1)CCN(c1ccc(OC(F)(F)F)cc1)C2=O` [Example 217, 8-(2-Isopropoxy-acetyl)-2-(4-trifluoromethoxy-phenyl)-2,8-diaza-spiro[4.5]decan-1-one], for which the IC50 amounted to 220 nM.

For `CC(C)(C)OCC(=O)N1CCC2(CC1)CCN(c1ccc(OC(F)(F)F)cc1)C2=O` [Example 218, 8-(2-tert-Butoxy-acetyl)-2-(4-trifluoromethoxy-phenyl)-2,8-diaza-spiro[4.5]decan-1-one], the concentration for half-maximal inhibition (IC50) turned out to be 100 nM.

The values are drawn from patent publication US8329904B2, “Azacyclic derivatives” (Hoffmann-La Roche Inc., priority 2009, dated 2012).
